# Results taken from patent US12018021B2 (UCB Biopharma SRL, priority 2018, dated 2024).
# Molecular target: IgE-Tb / sFcεRIα-Y131A-AF488 (Homo sapiens, UniProt P01854, N146Q/N252Q)
# Assay: IgE-Tb / sFcεRIα-Y131A-AF488 FRET assay (protocol for examples 234 to 501)
# Type: binding
# Settings: examples 234 to 501: compound with IgE-Tb 30 minutes before sFcεRIα-Y131A-AF488, incubated 18 hours at room temperature; read-out: Y131A FRET IC50 range
# Procedure, shortened: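 Compounds (10-point 3-fold series, top usually 10 μM, 2% DMSO) preincubated 30 min with 5 nM IgE-Tb, then 25 nM sFcεRIα-Y131A-AF488 added; 18 h at room temperature in the dark. TR-FRET ratio 520/490 nm after 337 nm excitation, background-subtracted; IC50 by four-parameter logistic fit.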
# Sequence of IgE-Tb / sFcεRIα-Y131A-AF488 (P01854 whole entry N146Q/N252Q): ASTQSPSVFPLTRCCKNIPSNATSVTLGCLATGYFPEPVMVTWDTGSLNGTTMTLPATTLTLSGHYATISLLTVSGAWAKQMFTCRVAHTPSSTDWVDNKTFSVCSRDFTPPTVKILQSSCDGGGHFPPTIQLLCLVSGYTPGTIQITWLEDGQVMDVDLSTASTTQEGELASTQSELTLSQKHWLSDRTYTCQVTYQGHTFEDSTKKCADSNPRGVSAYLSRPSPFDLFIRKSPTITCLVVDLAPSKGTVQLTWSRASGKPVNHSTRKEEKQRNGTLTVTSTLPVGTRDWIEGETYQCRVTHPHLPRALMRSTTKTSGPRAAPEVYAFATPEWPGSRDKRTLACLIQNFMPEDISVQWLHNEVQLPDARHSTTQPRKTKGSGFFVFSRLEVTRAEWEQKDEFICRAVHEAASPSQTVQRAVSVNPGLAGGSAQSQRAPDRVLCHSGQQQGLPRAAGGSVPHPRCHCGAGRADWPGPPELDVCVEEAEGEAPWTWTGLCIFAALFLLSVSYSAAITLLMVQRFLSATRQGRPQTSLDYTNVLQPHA
row,SMILES,IC50 [nM]
1,"Cn1nc(OC(F)F)cc1Nc1nncn1[C@H]1CCc2sc(NC(=O)[C@H]3C[C@H](F)C3)c(C(=O)N[C@H]3C[C@H](F)C3)c2C1 [Example 487, (5S)-5-[3-[[5-(difluoromethoxy)-2-methylpyrazol-3-yl]amino]-1,2,4-triazol-4-yl]-2-[trans-(3-fluorocyclobutanecarbonyl)amino]-N-(trans-3-fluorocyclobutyl)-4,5,6,7-tetrahydro-1-benzothiophene-3-carboxamide]",< 1000
2,"Cn1nc(OC(F)F)cc1Nc1nncn1[C@H]1CCc2sc(NC(=O)C3CC(F)(F)C3)c(C(=O)NC[C@@H]3C[C@@H]3F)c2C1 [Example 490, (5S)-2-[(3,3-difluorocyclobutanecarbonyl)amino]-5-[3-[[5-(difluoromethoxy)-2-methylpyrazol-3-yl]amino]-1,2,4-triazol-4-yl]-N-[[(1S,2S)-2-fluorocyclopropyl]methyl]-4,5,6,7-tetrahydro-1-benzothiophene-3-carboxamide]",< 1000
3,"Cn1nc(OC(F)F)cc1Nc1nncn1[C@H]1CCc2sc(NC(=O)C3CC(F)(F)C3)c(C(=O)NC[C@H]3C[C@H]3F)c2C1 [Example 491, (5S)-2-[(3,3-difluorocyclobutanecarbonyl)amino]-5-[3-[[5-(difluoromethoxy)-2-methylpyrazol-3-yl]amino]-1,2,4-triazol-4-yl]-N-[[(1R,2R)-2-fluorocyclopropyl]methyl]-4,5,6,7-tetrahydro-1-benzothiophene-3-carboxamide]",< 1000
4,"Cn1nc(OC(F)F)cc1Nc1nncn1[C@H]1CCc2sc(NC(=O)C3CC(F)(F)C3)c(C(=O)N[C@H]3C[C@H](F)C3)c2C1 [Example 492, (5S)-2-[(3,3-difluorocyclobutanecarbonyl)amino]-5-[3-[[5-(difluoromethoxy)-2-methylpyrazol-3-yl]amino]-1,2,4-triazol-4-yl]-N-(trans-3-fluorocyclobutyl)-4,5,6,7-tetrahydro-1-benzothiophene-3-carboxamide]",< 1000
5,"Cn1nc(C(F)F)cc1Nc1nncn1[C@H]1CCc2sc(NC(=O)C3CC3)c(C(=O)N[C@@H]3CC34CC4)c2C1 [Example 496, (5S)-2-(cyclopropanecarbonylamino)-5-[3-[[5-(difluoromethyl)-2-methyl-pyrazol-3-yl]amino]-1,2,4-triazol-4-yl]-N-[(2R)-spiro[2.2]pentan-2-yl]-4,5,6,7-tetrahydrobenzothiophene-3-carboxamide]",< 1000
6,"Cc1cc(Nc2nncn2[C@H]2CCc3sc(NC(=O)C4CC45CC5)c(C(=O)NCC4CC4)c3C2)n(C)n1 (stereo partly drawn) [Example 499, (5S)—N-(cyclopropylmethyl)-5-[3-[(2,5-dimethylpyrazol-3-yl)amino]-1,2,4-triazol-4-yl]-2-(spiro[2.2]pentane-2-carbonylamino)-4,5,6,7-tetrahydrobenzothiophene-3-carboxamide]",< 1000
